Assay results from patent US7795279B2, “Method of inhibiting FLT3 kinase” (Janssen Pharmaceutica NV, priority 2005, dated 2010).

Key:
MV4-11 cells = experiment: Inhibition of MV4-11 cell proliferation (CellTiterGlo); assay type: cell-based; conditions: Homo sapiens, 72 hours growth, uncertainty ±20%
Procedure: To assess the cellular potency of compounds of the present invention, FLT3 specific growth inhibition was measured in the leukemic cell line MV4-11 (ATCC Number: CRL-9591). MV4-11 cells are derived from a patient with childhood acute myelomonocytic leukemia with an 11q23 translocation resulting in a MLL gene rearrangement and containing an FLT3-ITD mutation (AML subtype M4)(1,2). MV4-11 cells cannot grow and survive without active FLT3ITD.
To measure proliferation inhibition by compounds of the present invention, the luciferase based CellTiterGlo reagent (Promega), which quantifies total cell number based on total cellular ATP concentration, was used. Cells are plated at 10,000 cells per well in 100 ul of in RPMI media containing penn/strep, 10% FBS and 1 ng/ml GM-CSF or 1 ng/ml IL-3 for MV4-11 and Baf3 cells respectively.
Compound dilutions or 0.1% DMSO (vehicle control) are added to cells and the cells are allowed to grow for 72 hours at standard cell growth conditions (37° C., 5% CO2). For activity measurements in MV4-11 cells grown in 50% plasma, cells were plated at 10,000 cells per well in a 1:1 mixture of growth media and human plasma (final volume of 100 μL). To measure total cell growth an equal volume of CellTiterGlo reagent was added to each well, according to the manufacturer's instructions, and luminescence was quantified. Total cell growth was quantified as the difference in luminescent counts (relative light units, RLU) of cell number at Day 0 compared to total cell number at Day 3 (72 hours of growth and/or compound treatment). One hundred percent inhibition of growth is defined as an RLU equivalent to the Day 0 reading. Zero percent inhibition was defined as the RLU signal for the DMSO vehicle control at Day 3 of growth.
Data points are an average of triplicate samples. […] Inhibition and IC50 data analysis was done with GraphPad Prism using a non-linear regression fit with a multiparamater, sigmoidal dose-response (variable slope) equation.

Baf3 cells = experiment: Baf3 cell proliferation (non-specific toxicity control); assay type: cell-based, murine; conditions: Mus musculus, IL-3 driven
Excerpt: The IL-3 dependent, murine b-cell lymphoma cell line, Baf3, were used as a control to confirm the selectivity of compound inhibition of proliferation for representatives of the present invention by measuring non-specific growth inhibition by the compounds of the present invention (data not shown). To measure proliferation inhibition by compounds of the present invention, the luciferase based CellTiterGlo reagent (Promega), which quantifies total cell number based on total cellular ATP concentration, was used. […] Compound dilutions or 0.1% DMSO (vehicle control) are added to cells and the cells are allowed to grow for 72 hours at standard cell growth conditions (37° C., 5% CO2). […] To measure total cell growth an equal volume of CellTiterGlo reagent was added to each well, according to the manufacturer's instructions, and luminescence was quantified. Total cell growth was quantified as the difference in luminescent counts (relative light units, RLU) of cell number at Day 0 compared to total cell number at Day 3 (72 hours of growth and/or compound treatment). One hundred percent inhibition of growth is defined as an RLU equivalent to the Day 0 reading. Zero percent inhibition was defined as the RLU signal for the DMSO vehicle control at Day 3 of growth. MV4-11 cells express the FLT3 internal tandem duplication mutation, and thus are entirely dependent upon FLT3 activity for growth. […]

MV4-11 tumor xenografts = experiment: Nude mouse MV4-11 human tumor xenograft regression model; assay type: in vivo; conditions: for final tumor weight: study termination
Procedure: Female athymic nude mice (CD-1, nu/nu, 9-10 weeks old) were obtained from Charles River Laboratories (Wilmington, Mass.) and were maintained according to NIH standards. All mice were group housed (5 mice/cage) under clean-room conditions in sterile micro-isolator cages on a 12-hour light/dark cycle in a room maintained at 21-22° C. and 40-50% humidity. Mice were fed irradiated standard rodent diet and water ad libitum. All animals were housed in a Laboratory Animal Medicine facility that is fully accredited by the American Association for Assessment and Accreditation of Laboratory Animal Care (AAALAC). All procedures involving animals were conducted in compliance with the NIH Guide for the Care and Use of Laboratory Animals and all protocols were approved by an […] Animal Care and Use Committee (IACUC). The human leukemic MV4-11 cell line was obtained from the American Type Culture Collection (ATCC Number: CRL-9591) and propagated in RPMI medium containing 10% FBS (fetal bovine serum) and 5 ng/mL GM-CSF (R&D Systems). […] MV4-11 cells express constitutively active phosphorylated FLT3 receptor as a result of this naturally occurring FLT3/ITD mutation. Strong anti-tumor activity against MV4-11 tumor growth in the nude mouse tumor xenograft model is a desirable quality of the invention. […] Female athymic nude mice weighing no less than 20-21 grams were inoculated subcutaneously in the left inguinal region of the thigh with 5×10^6 tumor cells in a delivery volume of 0.2 mL. For regression studies, the tumors were allowed to grow to a pre-determined size prior to initiation of dosing.

[1] = Body weight and overt toxicity in the MV4-11 xenograft study; conditions: 11-day oral treatment, doses up to 200 mg/kg/day
Procedure: If tumors in the control mice reached ˜10% of body weight (˜2.0 grams), the study was to be terminated. […] During the study, tumor growth was measured three times-a-week (M, W, F) using electronic Vernier calipers. Tumor volume (mm^3) was calculated using the formula […], where L=length (mm) and W=width (shortest distance in mm) of the tumor. Body weight was measured three times-a-week and a loss of body weight >10% was used as an indication of lack of compound tolerability. Unacceptable toxicity was defined as body weight loss >20% during the study. Mice were closely examined daily at each dose for overt clinical signs of adverse, drug-related side effects.
Mice were weighed three times each week (M, W, F) during the study and were examined daily at the time of dosing for overt clinical signs of any adverse, drug-related side effects.

[2] = test system: FLT3 phosphorylation in MV4-11 tumors; experiment: FLT3 phosphorylation in MV4-11 tumors (immunoprecipitation / western blot); assay type: in vivo, mouse; conditions: tumors harvested 6 hours later
Procedure: Tumors were harvested 6 hours later and snap frozen for assessment of FLT3 phosphorylation by western blots.
Harvested tumors were frozen and processed for immunoblot analysis of FLT3 phosphorylation in the following manner: 200 mg of tumor tissue was dounce homogenized in lysis buffer (50 mM Hepes, 150 mM NaCl, 10% Glycerol, 1% Triton-X-100, 10 mM NaF, 1 mM EDTA, 1.5 mM MgCl2, 10 mM NaPyrophosphate) supplemented with phosphatase (Sigma Cat# P2850) and protease inhibitors (Sigma Cat #P8340). Insoluble debris was removed by centrifugation at 1000×g for 5 minutes at 4° C. […] Immunoprecipitated FLT3 from tumor lysates were then washed four times with lysis buffer and separated by SDS-PAGE. […] Blots were then stripped and reprobed with anti-FLT3 antibody for normalization of phosphorylation signals.

CN(C)CC(=O)N1CCC(c2ccc(NC(=O)c3nc(C#N)c[nH]3)c(C3=CCCCC3)c2)CC1 [Example 38, 4-Cyano-1H-imidazole-2-carboxylic acid {2-cyclohex-1-enyl-4-[1-(2-dimethylamino-acetyl)-piperidin-4-yl]-phenyl}-amide]
IC50 (MV4-11 cells): 23.5 nM | inhibition at 3 µM (Baf3 cells): < 50% | tumor growth delay compared to vehicle-treated control group (MV4-11 tumor xenografts; 10 mg/kg b.i.d. oral, 11 days): no significant growth delay | final tumor weight (MV4-11 tumor xenografts; 10 mg/kg b.i.d. oral): no significant decrease in final tumor weight | final tumor weight (MV4-11 tumor xenografts; 50 mg/kg b.i.d. oral): no measurable tumor mass detectable | effects on body weight [1]: no significant adverse effects on body weight | level of FLT3 phosphorylation in MV4-11 tumors versus vehicle ([2]; single dose 10 mg/kg po): partial reduction | level of FLT3 phosphorylation in MV4-11 tumors versus vehicle ([2]; single dose 100 mg/kg po): biologically significant reduction
